Experimental data taken from ChEMBL document CHEMBL3217421, “Truncated militarinone fragments identified by total chemical synthesis induce neurite outgrowth” (Medchemcomm, 2013).
The source made the active and inactive calls. The rule behind the calls is not given here.

Experiments:
Type in all cases: functional, cell-based
PC-12 [1] = assay: Neuritogenic activity in rat PC12 cells assessed as induction of neurite outgrowth at 40 uM after 3 days using Giemsa staining by microscopic analysis
PC-12 [2] = assay: Neuritogenic activity in rat PC12 cells assessed as induction of neurite outgrowth at 20 uM after 3 days using Giemsa staining by microscopic analysis
PC-12 [3] = assay: Neuritogenic activity in rat PC12 cells assessed as induction of neurite outgrowth at 20 uM after 3 days using Giemsa staining by microscopic analysis in presence of ERK1/2 inhibitor PD98059
PC-12 [4] = assay: Neuritogenic activity in rat PC12 cells assessed as induction of neurite outgrowth at 2 uM after 3 days using Giemsa staining by microscopic analysis
PC-12 [5] = assay: Neuritogenic activity in rat PC12 cells assessed as induction of neurite outgrowth at 500 nM after 3 days using Giemsa staining by microscopic analysis
PC-12 [6] = assay: Neuritogenic activity in rat PC12 cells assessed as induction of neurite outgrowth at 1 uM after 3 days using Giemsa staining by microscopic analysis

For CCOC(=O)c1c(OC)c(-c2cccnc2)c[nH]c1=O, the Activity (PC-12 [1]) was “inactive”.

In the case of COc1cc(-c2cccnc2)ccc1O, the Activity (PC-12 [2]) is reported as “inactive”.

For CCOC(=O)c1c(O)c(-c2ccc(O)cc2)c[nH]c1=O, the Activity (PC-12 [2]) was “Active”.

In the case of CCOC(=O)c1c(OC)c(-c2ccc(OC)cc2)cn(C)c1=O, the Activity (PC-12 [2]) is reported as “inactive”.

With CCOC(=O)c1c(OC)c(-c2ccc(O)cc2)cn(C)c1=O the Activity (PC-12 [2]) was “Active”.

For CCOC(=O)c1c(OC)c(-c2ccncc2)c[nH]c1=O, the Activity (PC-12 [1]) was “inactive”.

In the case of CCOC(=O)c1c(OC)c(-c2ccc(F)cc2)c[nH]c1=O, the Activity (PC-12 [1]) is reported as “inactive”.

CCOC(=O)c1c(OC)c(-c2ccc(O)cc2)c[nH]c1=O was tested, and the Activity (PC-12 [2]) was “Active”.

With CCOC(=O)c1c(OC)c(-c2ccc(O)c(OC)c2)c[nH]c1=O the Activity (PC-12 [3]) was “inactive”, the Activity (PC-12 [4]) was “Active” and the Activity (PC-12 [5]) was “inactive”. The Activity (PC-12 [6]) was “Active” and the Activity (PC-12 [2]) was “Active”.

For CCOC(=O)c1c(OC)c(-c2ccccc2)c[nH]c1=O, the Activity (PC-12 [1]) was “inactive”.

For CCOC(=O)c1c(OC)c(-c2ccc(NC(=O)OC(C)(C)C)cc2)c[nH]c1=O, the Activity (PC-12 [1]) was “inactive”.

With CCOC(=O)c1c(OC)c(-c2ccc(N)cc2)c[nH]c1=O the Activity (PC-12 [1]) was “inactive”.

In the case of CCOC(=O)c1c(OC)c(-c2ccc(OC)cc2)c[nH]c1=O, the Activity (PC-12 [2]) is reported as “inactive”.

In the case of CCOC(=O)c1c(OC)c(-c2ccc(C(C)(C)C)cc2)c[nH]c1=O, the Activity (PC-12 [1]) is reported as “inactive”.
